# Data reported in patent US20250268845A1, “BONE REGENERATION COMPOSITION INCLUDING HORDENINE AND USE THEREOF” ([…]., priority 2023, published 2025).
# Legend:
# mesenchymal stem cells = assay: Differentiation of mesenchymal stem cells into chondrocytes, Alcian blue staining; assay type: cell-based; conditions: 5 or 10 µM hordenine, compared to the group treated only with a differentiation medium, FIG. 1
# Method: Specifically, mesenchymal stem cells were seeded at 2.5×10^4 cells/48 well and divided into a group treated only with the basic medium α-MEM, a group treated only with a differentiation medium (Chondrogenic media (CM)), and groups treated with 5 or 10 µM hordenine. After a few days, the degree of chondrocyte differentiation was evaluated by Alcian blue staining.
# [1] = tested on: osteoarthritis induced by DMM; assay: Cartilage regeneration in DMM-induced osteoarthritis, Safranin O and fast green staining; assay type: in vivo, mice; conditions: 2 mg/kg intra-articularly for 4 weeks from week 5 after DMM, examined at week 9
# Method: Specifically, osteoarthritis was induced by incising the ligament that stabilizes the medial meniscus in the joint tissue of 9-week-old mice. Starting from week 5 after destabilization of the medial meniscus (DMM), 2 mg/kg of hordenine was injected intra-articularly for 4 weeks, and at week 9, the mice were sacrificed and the joint tissues were examined by staining with Safranin O and fast green. The experimental process is illustrated in FIG. 2, and the experimental results are illustrated in FIGS. 3A and 3B.
# osteoclasts [2] = assay: Dentin disc actin ring assay through immunofluorescence staining; assay type: cell-based, mice; conditions: 10, 20, or 40 μM for 3 days, pre-osteoclasts from BMMs, compared to non-treatment; FIG. 5B
# Method: (§1) Specifically, bone marrow-derived macrophages (BMMs) were isolated from 3- to 4-week-old mice and cultured. On day 5, the BMMs were treated with receptor activator of nuclear factors KB ligand (RANKL) and macrophage-colony stimulating factor (M-CSF) for 3 days to be differentiated into pre-osteoclasts. Thereafter, to confirm the degree of osteoclast activation, the pre-osteoclasts were treated with 10, 20, or 40 μM of hordenine for 3 days, and a bone resorption assay through hematoxylin staining and a dentin disc actin ring assay through immunofluorescence staining were performed to confirm the degree of osteoclast activation. Bone resorption assay is a method of seeding osteoclasts on a dentin disc, which is an experimental bone tissue simulating the dentin component of bone, and quantifying the extent to which osteoclasts eat away at the bone. When holes formed by bone erosion are quantified, the pit area is measured, and a lower measurement indicates a lower degree of bone erosion. The more extensively the disc is eroded, the more intensely the disc stains with hematoxylin, while less eroded areas stain more lightly. […]
# osteoclasts [3] = assay: Bone resorption assay on dentin disc through hematoxylin staining; assay type: cell-based, mice; conditions: 10, 20, or 40 μM for 3 days, pre-osteoclasts from BMMs, compared to non-treatment; FIG. 5A
# Method: as §1
# osteoclasts [4] = assay: LPS-induced bone destruction in mouse skull, TRAP staining; assay type: in vivo, mice; conditions: 1 mg/kg intra-calvarially for 5 days after LPS 12.5 mg/kg; skulls harvested 6 days after the first LPS injection day; compared to LPS only; FIG. 6
# Method: Specifically, 12.5 mg/kg of lipopolysaccharide (LPS) was injected intra-calvarially into the skull of 5-week-old male mice twice in total: once on the first injection day and once 2 days after the first injection day, thereby inducing bone destruction. Thereafter, 1 mg/kg of hordenine was injected intra-calvarially for 5 days, starting 1 day after the first LPS injection day. 6 days after the first LPS injection day, the mice were sacrificed and the skulls were harvested from the mice. Then, the degree of osteoclast differentiation was evaluated by tartrate-resistant acid phosphatase (TRAP) staining. The results thereof are illustrated in FIG. 6.
structure (smiles),measurement,setting,value
"CN(C)CCc1ccc(O)cc1 [hordenine, 4-(2-dimethylaminoethyl) phenol]",degree of differentiation from mesenchymal stem cells into chondrocytes,mesenchymal stem cells,much higher
same,cartilage degradation (OARSI grade),[1],decrease
same,osteophytes caused by osteoarthritis induction,[1],reduced
same,synovitis,[1],reduced
same,thickness of subchondral bone plate (SBP),[1],reduced
same,cartilage (red portion) that had collapsed due to DMM,[1]; FIGS. 3A and 3B,restored
same,number of osteoclasts forming actin rings,osteoclasts [2],decreased in a concentration-dependent manner
same,hematoxylin staining (bone erosion of dentin disc),osteoclasts [3],became lighter in a concentration-dependent manner
same,pit area,osteoclasts [3],reduced
same,TRAP staining of skulls (degree of osteoclast differentiation),osteoclasts [4],lightly stained with TRAP
